From US7288535B2, “Methods and compositions for stimulating bone growth using nitric oxide releasing bisphosphonate conjugates” (OsteoScreen, Inc., priority 2002, dated 2007)
Like-named read-outs stand apart in the source and are kept apart here. Marks after values point to notes of the source that are not given here.

How the values were obtained:
[1] = test system: Neonatal Murine Calvariae; settings: mean ± standard error (n=5)
Description: (§1) An assay for bone resorption or bone formation is similar to that described by Gowen M. & Mundy G., J Immunol (1986) 136:2478-82. Briefly, four days after birth, the front and parietal bones of ICR Swiss white mouse pups are removed by microdissection and split along the sagittal suture. […] The medium used when the assay is conducted to assess bone formation is Fitton and Jackson Modified BGJ Medium (Sigma) supplemented with 6 ug/ml insulin, 6 ug/ml transferrin, 6 ng/ml selenous acid, calcium and phosphate concentrations of 1.25 and 3.0 mM, respectively, and ascorbic acid to a concentration of 100 ug/ml is added every two days. The incubation is conducted at 37° C. in a humidified atmosphere of 5% CO2 and 95% air for 96 hours.
The bones are removed from the incubation media and fixed in 10% buffered formalin for 24-48 hours, decalcified in 14% EDTA for 1 week, processed through graded alcohols; and embedded in paraffin wax. Three μm sections of the calvaria are prepared. Representative sections are selected for histomorphometric assessment of bone formation or bone resorption. Bone changes are measured on sections cut 200 μm apart. Osteoblasts and osteoclasts are identified by their distinctive morphology.
Selected compounds and appropriate controls were assayed in vitro (ex vivo) for bone formation activity (described above in “Techniques for Neonatal Mouse Calvaria Assay (in vitro)). Histomorphometrical assessments of ex vivo calvaria were carried out using an OsteoMetrics bone morphometry measurement program, according to the manufacturer's instructions. Measurements were determined using either a 10- or 20-fold objective with a standard point counting eyepiece graticule.
New bone formation was determined (using a 20× objective) by measuring the new bone area formed in one field in 3 representative sections of each bone (4 bones per group). Each measurement was carried out ½ field distance from the end of the suture. Both total bone and old bone area were measured. Data were expressed as new bone width in mm.
Osteoblast numbers are determined by point counting. The number of osteoblast cells lining the bone surface on both sides of the bone are counted in one field using a 20× objective. Data are expressed as osteoblast numbers/mm of bone surface.

[2] = test system: neonatal murine calvarial incubation media; settings: mean ± standard error (n=5)
Description: as §1
These neonatal murine calvaria do contain measurable levels of alkaline phosphatase and this can be measured either from the calvaria itself or to some degree in the incubation media as a semi-quantitative measurement of bone formation activity. For measurement of alkaline phosphatase activity in the media, 50 ul is removed at the end of the assay. The activity is then measured using standard alkaline phosphatase reagents.
Alkaline phosphatase activity is measured in the incubation media as detailed described above in “Techniques for Neonatal Mouse Calvaria Assay (in vitro)).

human stomach = settings: healthy volunteers, doses prescribed for osteoporosis and Pagets disease of bone; cited from earlier work

## NCCCC(O)(P(=O)(O)O)P(=O)(O)O [Alendronate, (4-animo-1-hydroxybutylidene)bis-phosphonate]
[1]; 0.1 uM
  Cell Number/0.3 mm bone: 98± 6 /0.3 mm bone
  New Bone Area: 2.9 ± 0.1 mm^2 × 10^−3
[1]; 1 uM
  Cell Number/0.3 mm bone: 103± 4 /0.3 mm bone
  New Bone Area: 3.2 ± 0.5 mm^2 × 10^−3
[1]; 10 uM
  Cell Number/0.3 mm bone: 101± 5 /0.3 mm bone
  New Bone Area: 2.7 ± 0.2 mm^2 × 10^−3
[1]; 100 uM
  Cell Number/0.3 mm bone: 97± 3 /0.3 mm bone
  New Bone Area: 3.1 ± 0.3 mm^2 × 10^−3
[2]; 0.1 uM
  Alkaline Phosphatase OD: 0.030 ± 0.009 OD
[2]; 1 uM
  Alkaline Phosphatase OD: 0.031 ± 0.010 OD
[2]; 10 uM
  Alkaline Phosphatase OD: 0.034 ± 0.001 OD
[2]; 100 uM
  Alkaline Phosphatase OD: 0.038 ± 0.003 OD
Human stomach
  injury to the stomach: cause erosions and ulcers in the human stomach

## O=C(NCCCC(O)(P(=O)(O)O)P(=O)(O)O)c1ccc(CO[N+](=O)[O-])cc1 [NOX-Alendronate, [4-(4′-nitrooxymethyl)benzoylamino-1-hydroxybutylidene]-bis-phosphonate]
[1]; 0.1 uM
  Cell Number/0.3 mm bone: 104 ± 8 /0.3 mm bone
  New Bone Area: 3.6 ± 0.6 mm^2 × 10^−3
[1]; 1 uM
  Cell Number/0.3 mm bone: 115 ± 5 /0.3 mm bone
  New Bone Area: 4.2 ± 0.4 mm^2 × 10^−3
[1]; 10 uM
  Cell Number/0.3 mm bone: 132 ± 5 /0.3 mm bone
  New Bone Area: 6.7 ± 0.7* mm^2 × 10^−3
[1]; 100 uM
  Cell Number/0.3 mm bone: 124 ± 2 /0.3 mm bone
  New Bone Area: 5.4 ± 0.3* mm^2 × 10^−3
[2]; 0.1 uM
  Alkaline Phosphatase OD: 0.029 ± 0.007 OD
[2]; 1 uM
  Alkaline Phosphatase OD: 0.023 ± 0.001 OD
[2]; 10 uM
  Alkaline Phosphatase OD: 0.053 ± 0.007 OD
[2]; 100 uM
  Alkaline Phosphatase OD: 0.072 ± 0.003 OD
